One molecule from patent publication US20200255714A1, “HYDROFLUOROEPOXIDE CONTAINING COMPOSITIONS AND METHODS FOR USING SAME” (3M INNOVATIVE PROPERTIES COMPANY, priority 2017, published 2020) can be followed below.

What all share (assay type): physicochemical
Data set [1] in a line: Thermal stability under air sparging at elevated temperature (GC analysis). As to conditions: 72 hour stir at 215° C.-220° C., sparging by air 0.4 L/min. The method, then: To a 3-neck 250 mL round bottom flask equipped with a water-cooled condenser, temperature probe, magnetic stir bar, and a ⅛ inch FEP tube connected to 10 micron steel frit was charged 2,3-bis(3,3,4,4,5,5,5-heptafluoro-2,2-bis(trifluoromethyl)pentyl) oxirane (70.4 g, 99 mmol). Sparging by air through the 10 micron steel frit at a rate of 0.4 L/min commenced and the internal temperature was slowly raised to 220° C. with stirring. After a 72 hour stir with the temperature held between 215° C.-220° C., the material was allowed to cool to room temperature.

Data set [2] can be described thus: Vapor pressure by stirred-flask ebuilliometer method (ASTM E 1719-97). The method, then: Vapor Pressure was measured using the stirred-flask ebuilliometer method described in ASTM E 1719-97 “Vapor Pressure Measurement by Ebuilliometry.” This method is also referred to as “Dynamic Reflux.” The method uses a 50-mL glass round-bottom flask. Vacuum was measured and controlled using a J-KEM vacuum controller (J-KEM Scientific, Saint Louis, Mo., US). The pressure transducer was calibrated on the day of measurement by comparison with full vacuum and with an electronic barometer. The procedure was to begin slowly heating the material, then vacuum was applied until boiling occurred and a steady drop wise reflux rate was established. Pot temperature and pressure reading were recorded, then the vacuum controller was set for a higher absolute pressure and the material was heated further until a new reflux point was established. The pressure level was raised in increments until the vapor pressure curve was obtained up to the atmospheric boiling point. The boiling point of PE1 at 760 mmHg was 238.3° C.

Data set [3] can be described thus: Chemical stability with absorbents at 65° C. (GC-FID). Particulars: 16 hours, initial starting material 99.6. The method, then:
The chemical stability was evaluated by charging a weighed amount of Preparatory Example PE1 into glass vials and then adding a weighed amount of absorbent. The samples were stirred with heating at 65° C. for 16 hours and then analyzed by GC-FID to determine whether any breakdown products were formed and whether the level of purity changed.

The nature of data set [4]: Kinematic viscosity by Ubbelohde capillary viscometer. The method, then:
Kinematic Viscosity was measured using glass SCHOTT Ubbelohde capillary viscometers (Xylem, Inc., Germany). The viscometers were timed using a SCHOTT AVS 350 viscosity timer. For a temperature of 10° C., a Lawler temperature control bath was used (Lawler Manufacturing Corp., Edison, N.J., US). The viscometer measurement stand and glass viscometer were immersed in a temperature-controlled liquid bath filled with NOVEC 7500 (3M Company, Saint Paul, Minn., US) as the bath fluid. The Lawler temperature bath was fitted with a copper tubing coil for liquid nitrogen cooling with fine temperature control provided by the bath's electronic temperature control heater. The fluid was mechanically stirred to provide uniform temperature in the bath. The bath controlled temperature to within ±0.1° C., as measured by the built-in resistance temperature detector (RTD) temperature sensor. The sample liquid was added to the viscometer between the two fill lines etched on the viscometer. The AVS-350 automatically pumped the sample fluid above the upper timing mark, then released the fluid and measured the efflux times between the upper and lower timing marks. The fluid meniscus was detected by optical sensors as it passed each timing mark. The sample was drawn up and measured repeatedly, averaging multiple measurements. The glass viscometers were calibrated using Canon certified kinematic viscosity standard fluids to obtain a calibration constant (centistokes per second) for each viscometer. The measured kinematic viscosity (centistokes), was calculated as the average efflux time (seconds) times the constant (centistokes/second) for the viscometer used.

On to `FC(F)(F)C(F)(F)C(F)(F)C(CC1OC1CC(C(F)(F)F)(C(F)(F)F)C(F)(F)C(F)(F)C(F)(F)F)(C(F)(F)F)C(F)(F)F` (stereo not shown) [PE1, 2,3-bis(3,3,4,4,5,5,5-heptafluoro-2,2-bis(trifluoromethyl)pentyl)oxirane], for which, in data set [1], the “content of starting material in final mixture (GC analysis)” value is recorded as “approximately 99.4%”. In addition, the “decomposition (GC analysis)” value in data set [1] is “no decomposition”. Moreover, the Vapor pressure came to 0.026 mmHg in data set [2] (20 ° C.); 0.35 mmHg in data set [2] (55 ° C.); 1.5 mmHg in data set [2] (78.6 ° C.); 96.6 mmHg in data set [2] (170.7 ° C.); 296.9 mmHg in data set [2] (204.3 ° C.); 397.1 mmHg in data set [2] (214.7 ° C.). In data set [2] (237.7 ° C.), this molecule had a Vapor pressure of 731.3 mmHg. In addition, the boiling point (usually the temperature of boiling at a given pressure) in data set [2] (at 760 mmHg) was determined as 238.3 °C. Also, the “GC-FID purity (%)” value in data set [3] (4 Å molecular sieves) was determined as 99.6%; in data set [3] (Activated carbon) it was 98.4%; in data set [3] (Basic alumina) it was 99.7%; in data set [3] (Potassium carbonate) it was 99.6%; in data set [3] (Silica gel), 99.6%. Also, the “Kinematic Viscosity” value was 146.42 cSt in data set [4] (10.0 ° C.), 36.22 cSt in data set [4] (25.0 ° C.), 25.87 cSt in data set [4] (30.0 ° C.) and 14.49 cSt in data set [4] (40.0 ° C.).
